We go through one molecule from PMC12123601, “Light-Induced, Lysine-Targeting Irreversible Covalent Inhibition of the Human Oxygen Sensing Hydroxylase Factor Inhibiting HIF (FIH)” (Journal of the American Chemical Society, 2025).

Usually ΔTm stands for the shift of the melting midpoint relative to a reference.

The target of the experiment is FIH (Homo sapiens, UniProt Q9NWT6). Nature of the experiment: Time-dependent cellular thermal shift assay (CETSA) in Hep3B cells, FIH. It is filed as cell-based. The settings on record: for ΔTm at 50 µM: Hep3B. Further details: endogenous in cells; host or cells: Hep3B (SCSP-5045). Here is the method: To investigate potential cellular target engagement of NBA-ZG-2291 with FIH, we performed a time-dependent cellular thermal shift assay (CETSA) using Hep3B cells. The results imply that, after 30 min of light activation (365 nm, 16 W), NBA-ZG-2291 effectively stabilizes FIH with a ΔT m of about 9 °C after incubation for 12–48 h (Figure A), indicating sustained engagement with FIH. […] We also performed Western blotting to examine the protein levels of both HIF-1α and HIF-2α in control and NBA-ZG-2291-treated Hep3B cells.
5 NBA-ZG-2991 sustainably engages with FIH and regulates the expression of FIH-dependent HIF target gene EGLN3 in Hep3B cells. (A) The CETSA assay was carried out with Hep3B cells grown in the presence of NBA-ZG-2291 (50 μM) for 12–48 h after 30 min of light activation (365 nm, 16 W). The intensity of the bands for grayscale analysis was referenced to the starting temperature (37 °C). α-Actinin was the sample loading control. n = 2; mean ± SD. […] (E) Correlation heatmap of the NBA-ZG-2291-treated group and the siFIH group by RNA-sequencing analysis. […] The relative fold change with respect to DMSO treated sample is shown (with normalization to HPRT gene levels). Mean ± SEM; n = 3. (G) TG level of NBA-ZG-2291-treated 3T3-L1-derived adipocytes. Mean ± SEM; n = 3. (H) Representative Oil Red O-stained images of the control, ZG-2291-treated, and NBA-ZG-2291-treated 3T3-L1-derived adipocytes. Scale Bar, 30 μm. P values were analyzed by two-way ANOVA comparing with the vehicle/control group (*, P < 0.05; **, P < 0.01; ***, P < 0.001, ****, P < 0.0001). See Methods (Quantitative PCR Analysis of Gene Expression) for assay details. […]
Data acquisition was carried out in Full MS mode, positive ion detection, the acquisition time was 10 min, and the scanning range of the mass-to-charge ratio was 400-2000 m/z.
3.5 Dihedral angle scan analysis
Dihedral angle scans were performed using the Gaussion 16 suite11. The original dihedral angles of the isoxazol-5-yl pyridine fragment were set to 0° via Gaussian View 6.0.16 for dihedral scanning from 0° to 360° in 1° increments at the B3LPY-D3(BJ)/6-31+G(d) level of theory. The resulting 360 conformations and the single-point energy for each conformation were extracted.
3.6 Molecular dynamics (MD) simulations
The process of customizing non-standard residues (NBA-ZG-2291 modified Lys106) in the amber14sb force field involved the following steps: First, the molecular structure of NBA-ZG-2291 was obtained and its topology was generated. […]
The RESP charges were fitted using Multiwfn, wherein the optimized structure and ESP data were inputted to perform the restrained electrostatic potential fitting. The obtained RESP charges were subsequently incorporated into the gaff topology generated by Multwfn. […]

Chain of FIH (Q9NWT6 whole entry): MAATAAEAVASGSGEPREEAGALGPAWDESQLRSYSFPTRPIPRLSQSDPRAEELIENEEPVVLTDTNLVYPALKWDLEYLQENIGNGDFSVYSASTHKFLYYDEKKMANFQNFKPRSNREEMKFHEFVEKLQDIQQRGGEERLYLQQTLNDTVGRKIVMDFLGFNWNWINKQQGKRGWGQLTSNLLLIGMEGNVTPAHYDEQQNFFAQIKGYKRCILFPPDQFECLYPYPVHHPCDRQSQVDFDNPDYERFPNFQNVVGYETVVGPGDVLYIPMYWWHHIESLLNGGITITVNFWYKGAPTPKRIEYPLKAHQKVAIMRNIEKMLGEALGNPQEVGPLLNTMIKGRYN

In the case of `O=C(O)CNC(=O)c1ncc(-c2cc(-c3ccc(CO)c([N+](=O)[O-])c3)no2)cc1O` [NBA-ZG-2291], the ΔTm at 50 µM amounted to 8.87 °C (incubation 12 h after 30 min light activation (365 nm, 16 W)); 9.28 °C (incubation 24 h after 30 min light activation (365 nm, 16 W)); 8.86 °C (incubation 48 h after 30 min light activation (365 nm, 16 W)). For the same molecule, for the setting “incubation for 12–48 h after 30 min light activation (365 nm, 16 W)”, the “FIH: ΔTm” value is “about 9 °C”.
